US7517529B2, “Treatment of type I diabetes” (Biotempt B.V., priority 2003, dated 2009)
Ends that are not written are not given here.

Columns and labels:
[1] = system: NFκB; assay: EMSA of nuclear extracts, basal and LPS-induced NFκB translocation in RAW 264.7 mouse macrophages; type: cell-based; conditions: 30 minutes; for LPS-induced translocation of NFκB: LPS in combination with peptide (1 microgr/ml; 1 mg/ml); for Basal levels of NFκB in the nucleus: peptide without LPS
Description: RAW 264.7 mouse macrophages were cultured in DMEM, containing 10% or 2% FBS, penicillin, streptomycin and glutamine, at 37° C., 5% CO2. Cells were seeded in a 12-wells plate (3×10^6 cells/ml) in a total volume of 1 ml for two hours and then stimulated with LPS (E. coli 026:B6; Difco Laboratories, Detroit, Mich., USA) and/or gene-regulatory peptide (1 microgr/ml). After 30 minutes of incubation, plates were centrifuged and cells were collected for nuclear extracts. Nuclear extracts and EMSA were prepared according to Schreiber et al. Cells were collected in a tube and centrifuged for five minutes at 2000 rpm (rounds per minute) at 4° C. (Universal 30 RF, Hettich Zentrifuges). The pellet was washed with ice-cold Tris buffered saline (TBS pH 7.4) and resuspended in 400 μl of a hypotonic buffer A (10 mM HEPES pH 7.9, 10 mM KCl, 0.1 mM EDTA, 0.1 mM EGTA, 1 mM DTT, 0.5 mM PMSF and protease inhibitor cocktail (Complete™ Mini, Roche) and left on ice for 15 minutes. Twenty-five microliters 10% NP-40 was added and the sample was centrifuged (two minutes, 4000 rpm, 4° C.). The supernatant (cytoplasmic fraction) was collected and stored at −70° C. The pellet, which contains the nuclei, was washed with 50 μl buffer A and resuspended in 50 μl buffer C (20 mM HEPES pH 7.9, 400 mM NaCl, 1 mM EDTA, 1 mM EGTA, 1 mM DTT, 0.5 mM PMSF and protease inhibitor cocktail and 10% glycerol). The samples were left to shake at 4° C. for at least 60 minutes. Finally the samples were centrifuged and the supernatant (nucleic fraction) was stored at −70° C.
Bradford reagent (Sigma) was used to determine the final protein concentration in the extracts. For electrophoretic mobility shift assays an oligonucleotide representing NFκB-binding sequence (5′-AGCTCAGAGGGGGACTTTCCGAGAG-3′ (SEQ ID NO:28)) was synthesized. Hundred pico mol sense and antisense oligo were annealed and labeled with […] using T4 polynucleotide kinase according to the manufacturer's instructions (Promega, Madison, Wis.). Nuclear extract (5 to 7.5 μg) was incubated for 30 minutes with 75000 cpm probe in binding reaction mixture (20 microliters) containing 0.5 μg poly dI-dC (Amersham Pharmacia Biotech) and binding buffer BSB (25 mM MgCl2, 5 mM CaCl2, 5 mM DTT and 20% Ficoll) at room temperature. The DNA-protein complex was resolved from free oligonucleotide by electrophoresis in a 4 to 6% polyacrylamide gel (150 V, two to four hours). The gel was then dried and exposed to x-ray film. The transcription factor NFκB participates in the transcriptional regulation of a variety of genes. Nuclear protein extracts were prepared from either LPS (1 mg/ml), peptide (1 mg/ml) or LPS in combination with peptide-treated and untreated RAW264.7 cells. In order to determine whether the peptides modulate the translocation of NFκB into the nucleus, on these extracts EMSA was performed. Peptides are able to modulate the basal as well as LPS-induced levels of NFκB. In this experiment peptides that show the inhibition of LPS-induced translocation of NFκB are: […] (SEQ ID NO:21), […] (SEQ ID NO:22), LQG, LQGV (SEQ ID NO:1), […] (SEQ ID NO:23), VLPALP (SEQ ID NO:4), VVC, MTR and circular […] (SEQ ID NO: 17). Peptides that in this experiment promote LPS-induced translocation of NFκB are: VLPALPQ (SEQ ID NO:13), GVLPALP (SEQ ID NO:16) and MTRV (SEQ ID NO:20). Basal levels of NFκB in the nucleus was decreased by […] (SEQ ID NO:21), […] (SEQ ID NO:22), LQG and LQGV (SEQ ID NO:1) while basal levels of NFκB in the nucleus was increased by […] (SEQ ID NO:23), VLPALPQ (SEQ ID NO:13), GVLPALP (SEQ ID NO:16), VVC, MTRV (SEQ ID NO:20), MTR and […].

[2] = system: relapsing-remitting multiple sclerosis; conditions: treated group, trial of 251 patients; cited from earlier work
[3] = system: production of NO by a cell; assay: Production of NO by a cell; type: cell-based
[4] = system: NFκB; assay: Other experiments on translocation of NFκB into nucleus (data not shown); type: cell-based

| Substance | LPS-induced translocation of NFκB [1] | Basal levels of NFκB in the nucleus [1] | annual relapse rate reduced by [2] [%] | production of NO by a cell [3] | modulation of translocation of NFκB into nucleus [4] |
| --- | --- | --- | --- | --- | --- |
| GVLPALP | promote | increased | – | – | – |
| GVLPALPQ | inhibition | increased | – | – | – |
| Glatiramer acetate | – | – | 25 | – | – |
| LQG | inhibition | decreased | – | capable of reducing production of NO by a cell | – |
| LQGV | inhibition | decreased | – | capable of reducing production of NO by a cell | – |
| LQGVLPALPQ | inhibition | decreased | – | capable of reducing production of NO by a cell | – |
| LQGVLPALPQVVC | – | increased | – | – | – |
| MTR | inhibition | increased | – | – | – |
| MTRV | promote | increased | – | – | – |
| QVVC | – | – | – | – | modulation of translocation of NFκB into nucleus |
| VLPALP | inhibition | – | – | capable of reducing production of NO by a cell | – |
| VLPALPQ | promote | increased | – | – | – |
| VLPALPQVVC | inhibition | decreased | – | capable of reducing production of NO by a cell | – |
| VVC | inhibition | increased | – | – | – |
| circular LQGVLPALPQVVC (also: circular/cyclised, mode not given here) | inhibition | – | – | – | – |
